Here are results for two molecules from patent US20070043108A1, “Use of equol for ameliorating or preventing neuropsychiatric and neurodegenerative diseases or disorders” (priority 2002, published 2007).

Data set [1] in a line: Competition and binding studies of equol with other labelled steroids.
The subject of data set [2] is GDX males. The experiment in a line: Examples 5 and 6: gonadectomized (GDX) male rats treated with DHTP, equol or both; histology. It counts as in vivo, rat. Here is the method:
One week following arrival, animals are gonadectomized (GDX) under isoflurane anesthesia and allowed to recover for 7 days. Following recovery, animals are assigned to the following groups 1) DMSO, 2) DHTP (2 mg/1 kg), 3) racemic equol (0.25 mg/kg), or 4) both DHTP and racemic equol. Injections are given subcutaneously daily for 4 days. Animals are killed via decapitation and trunk blood and tissues are collected for analysis.
Tissues, including prostate, testes and epididymis, are removed from the animal, dissected free of fat and connective tissues, weighed, fixed by immersion in 4% paraformaldehyde, and then sectioned at 15 μm on a cryostat. Tissue sections are mounted on charged slides (Superfrost Plus, Fisher Scientific, Pittsburgh, Pa.) prewarmed to 23° C., and stained with hematoxylin and eosin (H&E), dehydrated in ascending alcohol and cleared with xylene.

Data set [3] concerns mid-aged Long-Evans female rats. The experiment in a line: Example 17: Porsolt forced swim test and body weight in mid-aged female rats. In kind it is in vivo, rat. How it is done:
The female rats were exposed (from time of conception) to either a phytoestrogen-rich (Phyto-600) or a phytoestrogen-free (Phyto-free) diet.
At 12 months of age, the animals were analyzed using the Porsolt forced swim test that is a standard preclinical test with applications to humans for investigating the neurobiology of depression and of action of antidepressant agent (R. D. Porsolt, M. Pichon and M Jalfre, Nature 266: 730-732, 1977; and M. A. Geyer & A. Markou, in Psychopharmacology: The Fourth Generation of Progress, NY, Raven Press, pp. 787-798, 1995).
The test is designed to force rats to swim vigorously. Over time, some of the animals may become immobile which is considered a condition of behavioral despair. The total time an animal is immobile is an index of despair or depression. […] S. Hall, J. Comp. Psych., 18: 385-403, 1934), increased boli numbers during the test would indicate heighten emotional behavior. All of these parameters were recorded in this study and quantified by AnyMaze® computer software and the total time of the Porsolt forced swim test was 480 seconds or 8 minutes.
The animals were tested twice.
Test 1 compared diet exposure alone, shown as A in FIGS. 58-69 and labeled as “before equol injections.”
In the second stage of testing the Phyto-free fed females were injected with equol@ […] or 2.5 mg/kg via subcutaneous administration) for 8 days while the Phyto-600 fed females received dimethylsulfoxide (DMSO) vehicle control injections. (DMSO has been used in medicine due to its ability to penetrate deeply through the skin and other membranes without damaging them and ability to carry compounds into the circulation).
Test 2 assessed depressive behaviors following the equol treatments, shown as B in FIGS. 58-69 and labeled as “after equol injections.”

For data set [4] the following is noted: humans; cited from earlier work.
For data set [5], the system named is GDX males. The experiment in a line: Examples 5 and 6: gonadectomized (GDX) male rats treated with DHTP, equol or both; histology. In kind it is in vivo, rat. This is another data set of the same source.
Data set [6] concerns adult Long-Evans male rats. To be noted: equol-treated male rats vs control, previously reported in US 2005/0245492; cited from earlier work.
Data set [7] addresses T1, ERβ (Rattus norvegicus, UniProt Q62986).
T1 construct: Full length rat ERα expression vector (pcDNA-ERα; RH Price UCSF) and ERβ expression vector (pcDNA-ERβ; T A Brown, Pfizer; made in house; host or cells: TnT-coupled rabbit reticulocyte lysate in vitro translation (Promega)
The experiment in a line: Competition binding of equol enantiomers with [3H]E2 for in vitro translated ERβ. Here is the method: In vitro binding studies were performed to examine the relative affinities of S— and R-enantiomeric equol with the estrogen receptors ERα and ERβ.
Synthesis of Hormone Receptor Proteins: Full length rat ERα expression vector (pcDNA-ERα; RH Price UCSF) and ERβ expression vector (pcDNA-ERβ; T A Brown, Pfizer, Groton, […].) were used to synthesize hormone receptors in vitro using the TnT-coupled reticulocyte lysate system (Promega, Madison, Wis.) with T7-RNA polymerase, during a 90 min reaction at 30° C. Translation reaction mixtures were stored at −80° C. until further use.
Saturation isotherms: In order to calculate and establish the binding affinity of the S-equol and R-equol enantiomers for ERα and ERβ, 100 μL aliquots of reticulocyte lysate supernatant were incubated at optimal time and temperature; 90 min at room temperature (ERβ) and 18 hrs at 4° C. (ERα), with increasing (0.01-100 nm) concentrations of [3H] […] These times were determined empirically and represent optimal binding of receptor with estrogen. Nonspecific binding was assessed using a 300-fold excess of the ER agonist diethylstilbestrol, in parallel tubes. Following incubation, bound and unbound [3H]E2 were separated by passing the incubation reaction through a 1 mL lipophilic Sephadex LH-20 (Sigma-Aldrich Co., Saint Louis, Mo.) column Columns were constructed by packing a disposable pipette tip (1 mL; Labcraft, Curtin Matheson Scientific, Inc, Houston, Tex.) with TEGMD (10 mm Tris-Cl, 1.5 mm EDTA, 10% glycerol, 25 mm molybdate, and 1 mm dithiothreitol, pH 7.4)-saturated Sephadex according to previously published protocols (Wanda et al., 1986; O'Keefe and Handa, 1990). For chromatography, the columns were re-equilibrated with TEGMD (100 μL), and the incubation reactions were added individually to each column and allowed to incubate on the column for an additional 30 min. Following this incubation, 600 μL of TEGMD were added to each column, flow-through was collected, 4 mL scintillation fluid was added, and samples were counted (5 min each) in an 2900 TR Packard scintillation counter (Packard Bioscience, Meriden, Conn.).
Competition binding studies were used to assess the estrogenic properties of equol's S-equol and R-equol enantiomers. Based on the ability of S and R to compete with [3H]

Data set [8] in a line: Bioavailability of R-equol after oral administration to a healthy adult. In kind it is in vivo, human. Here is the method: 20 mg of pure R-equol was administered orally to a healthy adult after an overnight fast. Blood samples were collected at timed intervals over the next 24 hours and the plasma concentration of equol was determined by isotope dilution gas chromatography-mass spectrometry with selected ion monitoring. Rapid appearance of equol is observed in the plasma with peak concentrations observed after 8 hours. The terminal elimination half-life of R-equol was approximately 8 hours.

[9] abbreviates: Test 2, Phyto-free females after equol for 8 days.

T1 sequence (Q62986 whole entry): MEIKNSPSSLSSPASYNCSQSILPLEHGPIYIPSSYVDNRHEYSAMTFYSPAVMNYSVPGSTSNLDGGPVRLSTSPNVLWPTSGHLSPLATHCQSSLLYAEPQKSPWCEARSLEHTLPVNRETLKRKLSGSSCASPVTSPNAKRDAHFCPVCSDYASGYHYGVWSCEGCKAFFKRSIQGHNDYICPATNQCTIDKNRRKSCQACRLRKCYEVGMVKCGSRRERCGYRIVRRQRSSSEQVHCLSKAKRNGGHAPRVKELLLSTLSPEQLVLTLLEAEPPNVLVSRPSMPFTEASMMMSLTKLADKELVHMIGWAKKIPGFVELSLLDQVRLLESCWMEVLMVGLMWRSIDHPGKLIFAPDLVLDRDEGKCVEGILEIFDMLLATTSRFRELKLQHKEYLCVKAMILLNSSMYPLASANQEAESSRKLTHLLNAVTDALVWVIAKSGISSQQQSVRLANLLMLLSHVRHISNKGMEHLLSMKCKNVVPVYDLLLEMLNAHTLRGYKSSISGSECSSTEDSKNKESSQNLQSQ

As to `Oc1ccc(C2COc3cc(O)ccc3C2)cc1` (racemic) [equol, 7-hydroxy-3(4′hydroxyphenyl)-chroman], in data set [1], the “binding to [3H]E2, [3H]T, [3H]DHEA, [3H]CORT and [3H]progesterone” value is reported as “without any occurrences of binding”. Moreover, in data set [2] (GDX males, DHTP+equol), the “LH, in combination with DHTP” value is reported as “blocks the negative feedback effects of DHTP on LH secretion” and the “prostate weight, concomitant treatment with DHTP” value is “blocks the effects of DHTP”. For the same molecule, in data set [2] (GDX males, given alone, vs DMSO), the LH entry is “no effect on LH levels”. Further, in data set [2] (GDX males, given alone, vs vehicle-treated GDX), the prostate weight entry is “no effect alone on prostate size”. The “plasma 5α-DHT, co-treatment of DHTP-treated animals with equol” value in data set [2] (GDX+equol+DHTP vs GDX+DHTP) is “further elevated, although, not significantly”. For the same molecule, in data set [3] (Test 2, Phyto-free females after equol 5 mg/day sc for 8 days), the total distance traveled result was “increased and similar to control values”. In data set [3] (setting [9]), the number of boli entry is listed as “reduced after equol treatments”; the number of dives result is “significantly reduced and comparable to control levels”; the total time immobile result is “significantly reduced and similar to controls”. In data set [3] (Test 2, after vs before equol injections), the total time mobile result was “significantly increased”. Also, the “decrease in body weight over controls” value in data set [3] (after the 8 day treatment interval) is recorded as 2.6 fold. In data set [3] (mid-aged females, end of 8 day treatment, ±SEM), the “Body Weight Loss (grams)” value was −31.2 (±4.8*) grams. Further, in data set [4], the “proportion circulating in the free or unbound form in plasma” value was “Approximately 50%”. The “epididymal histology (H&E)” value in data set [5] (intact males vs control males) is listed as “overall smaller ducts”. Also, in data set [5] (intact males vs intact control), the “prostate histology (H&E)” value was “involution and consist of more closely spaced, atrophic glands”. In data set [6], the 5α-DHT entry was “significant reductions”; the prostate weight entry was “significant reductions”; the “serum testosterone, luteinizing hormone (LH) or 17β-estradiol levels” value is “no alteration”.
Consider `Oc1ccc([C@@H]2COc3cc(O)ccc3C2)cc1` [R-equol], for which, in data set [7], the “affinity for ERβ, fold less” value is “approximately 100 fold”. In data set [7] (competition with [3H]E2, in vitro translated ER), this molecule showed a Kd of 15.4 ± 1.31 nM. Also, the bioavailability entry in data set [8] (20 mg orally) is on record as “extremely bioavailable”. The “time of peak plasma concentrations” value in data set [8] (20 mg orally after overnight fast, healthy adult) was 8 h. Further, the “stability of the enantiomer in vivo (racemization, biotransformation)” value in data set [8] (equol in plasma by ESI-MS after 20 mg orally) is reported as “does not undergo any racemization or further biotransformation in the intestine”. In addition, the half-life in data set [8] (human, plasma, po, 20 mg orally, healthy adult, read-out: terminal elimination half-life (converted)) was around 8 h.
